Read-outs that look alike come from different tables or passages of the source.
Experiments:
[1] = Acute toxicity (LD50); settings: mouse, in vivo, Maus, read-out: LD₅₀
Protocol: Was die Toxizität anbelangt, beträgt die LD₅₀ von CPC 125 mg/kg i.v. und 4000 mg/kg p.o. an der Maus.

[2] = system: Totenkopfäffchen; test: Inhibition of cholesterol absorption after oral [14C]-cholesterol test meal, faecal radioactivity over 2.5 days; type: in vivo; settings: in percent of untreated control animals
Protocol: Einer Gruppe von 12 Totenkopfäffchen wurde ein Gemisch enthaltend Triolein, Stärke, Milchpulver, 1 mg [¹⁴C]-Cholesterin und 0.05 mg [³H]-Polyäthylenglycol und unmittelbar darauf eine Dispersion von CPC in 5% Gummi arabicum oral verabreicht. Hierauf wurde der Kot während 2,5 Tagen gesammelt. Die ausgeschiedene [¹⁴C]-Radioaktivität des Cholesterins wurde unter Berücksichtigung der [³H]-Radioaktivität des internen Standards Polyäthylenglycol ermittelt. Es wurde die Cholesterinabsorption (Differenz zwischen der verabreichten und der ausgeschiedenen [¹⁴C]-Radioaktivität des Cholesterins) berechnet und in der nachfolgenden Tabelle in Prozenten von unbehandelten Kontrolltieren angegeben.

[3] = system: Totenkopfäffchen; test: Plasma cholesterol level during 14 days of feeding with coconut-oil diet; type: in vivo; settings: for Senkung des Cholesterinspiegels in Prozenten der Kontrolltieren: versus placebo
Protocol: Totenkopfäffchen wurde pro Tier und Tag 239 mg Lactose als Placebo oder 239 mg CPC zusammen mit Kokonussöl enthaltendem Futter während 14 Tagen verabreicht. Jede 3 oder 4 Tage wurde den Tieren venöses Blut entnommen und der Cholesterinspiegel im Blutplasma ermittelt. In der nachstehenden Tabelle wird der Cholesterinspiegel in Prozenten der Vorperiode sowie die Senkung des Cholesterinspiegels in Prozenten der Kontrolltieren angegeben.

Which LD50 ([1]; iv) does the source give for CC(C)CCC[C@@H](C)[C@H]1CC[C@H]2[C@@H]3CC=C4C[C@@H](OP(=O)([O-])OCC[N+](C)(C)C)CC[C@]4(C)[C@H]3CC[C@]12C [CPC, Cholesteryl-phosphorylcholin] here?
Its LD50 is 125 mg/kg.

And the LD50 ([1]; po)?
Its LD50 is 4000 mg/kg.

And the “Cholesterinabsorption (%)” value ([2]; Dosis 30 µMol/kg oral)?
Its value is 90 ± 17%.

And the “Cholesterinabsorption (%)” value ([2]; Dosis 100 µMol/kg oral)?
The value was 60 ± 10%.

What about the “Cholesterinabsorption (%)” value ([2]; Dosis 300 µMol/kg oral) of the same compound?
Its value is 12 ± 6%.

What about the “Cholesterinspiegel im Blutplasma in Prozenten der Vorperiode” value (“Cholesterinspiegel im Blutplasma” below) ([3]; Tag 1, vor der Behandlung, 239 mg CPC per animal and day) of the same compound?
Its value is 100±8%.

What about the “Senkung des Cholesterinspiegels in Prozenten der Kontrolltieren” value (“Senkung des Cholesterinspiegels” below) ([3]; Tag 1, vor der Behandlung) of the same compound?
Its value is 0%.

And the “Cholesterinspiegel im Blutplasma” value ([3]; Tag 4, während der Behandlung, 239 mg CPC per animal and day)?
The value was 88±6%.

And the “Senkung des Cholesterinspiegels” value ([3]; Tag 4, während der Behandlung)?
The value was 9%.

And the “Cholesterinspiegel im Blutplasma” value ([3]; Tag 7, während der Behandlung, 239 mg CPC per animal and day)?
Its value is 84±4%.

What about the “Senkung des Cholesterinspiegels” value ([3]; Tag 7, während der Behandlung) of the same compound?
Its value is 20%.

What about the “Cholesterinspiegel im Blutplasma” value ([3]; Tag 11, während der Behandlung, 239 mg CPC per animal and day) of the same compound?
The value was 93±13%.

And the “Senkung des Cholesterinspiegels” value ([3]; Tag 11, während der Behandlung)?
The value was 13%.

What about the “Cholesterinspiegel im Blutplasma” value ([3]; Tag 14, während der Behandlung, 239 mg CPC per animal and day) of the same compound?
Its value is 86±11%.

And the “Senkung des Cholesterinspiegels” value ([3]; Tag 14, während der Behandlung)?
Its value is 18%.

What about the “Cholesterinspiegel im Blutplasma” value ([3]; Tag 18, nach der Behandlung, 239 mg CPC per animal and day for 14 days) of the same compound?
Its value is 94±13%.

What about the “Senkung des Cholesterinspiegels” value ([3]; Tag 18, nach der Behandlung) of the same compound?
Its value is 9%.

What about the “Cholesterinspiegel im Blutplasma” value ([3]; Tag 21, nach der Behandlung, 239 mg CPC per animal and day for 14 days) of the same compound?
Its value is 97±11%.

And the “Senkung des Cholesterinspiegels” value ([3]; Tag 21, nach der Behandlung)?
Its value is 10%.

And the “reversible Senkung des Plasmacholesterols” value ([3]; summary, versus placebo values and values of the pre-period)?
Its value is 10 bis 20%.

Source: patent publication EP0287014A2, “Cholesteryl-phosphoryl choline for the reduction of the cholesterol level” (F. HOFFMANN-LA ROCHE AG, priority 1987, dated 1988)
